Test results taken from patent publication US9772334B2, “Inflammatory bowel disease markers and therapies for colitis-associated intestinal fibrosis” (THE REGENTS OF THE UNIVERSITY OF CALIFORNIA, priority 2012, dated 2017).
Entries after “also recorded” stand apart in the source; their conditions may differ.

How the values were obtained:
[1] = tested on: TNFα expression in Raw264.7 macrophages; assay: PAMP induced TNFα expression in Raw264.7 macrophages; type: cell-based, mouse; settings: for LPS induced TNFα expression under IGF-1R inhibition: IGF-1R inhibitor 10 μM pretreatment 30 minutes, LPS 0.1 μg/ml
Procedure: (§1) To identify the anti-inflammatory mechanism of cathelicidin, human PBMCs and mouse macrophages to were exposed to PAMP signals (LPS and E. coli DNA) in the presence of cathelicidin LL-37 or mCRAMP (1-10 μM).

CCD-18Co fibroblasts = assay: β-tubulin expression and tubulin distribution in CCD-18Co fibroblasts; type: cell-based, human; settings: for tubulin distribution (tubulin tracker): 10 μM, 24 hours
[2] = tested on: human colonic CCD-18Co fibroblasts; assay: TGF-β1 and IGF-1 induced collagen (COL1A2) expression in CCD-18Co fibroblasts; type: cell-based
Text: Collagen (COL1A2) and total ERK protein expression was detected by Western blot analyses and quantitative image densitometry.

UC disease activity = settings: humans; Vernia et al. 2000; cited from earlier work
Raw264.7 macrophages = assay: Camp mRNA expression in Raw264.7 macrophages; type: cell-based, mouse; settings: 5 mM; 6 and 24 hours; serum starved
DSS mediated colitis [3] = settings: animal models; Vieira et al. 2011; cited from earlier work
DSS mediated colitis [4] = assay: DSS mediated colitis in mice, intraperitoneal sodium butyrate; type: in vivo
Text: FIGS. 15A-15D show endogenous cathelicidin induction by sodium butyrate ameliorated DSS mediated colitis in mice. FIG. 15A is an illustration of the administration of DSS and/or sodium butyrate to mCRAMP deficient (Camp^−/−) and wild-type mice (i.e., the experimental plan).
(§2) FIGS. 16A-16F show sodium butyrate inhibited colonic TNFα expression but not colonic microflora load. […] The decrease of TNFα levels in Camp^−/− mice was minimized (drop by 4 pg/μg protein), compared to wild-type mice (drop by 6 pg/μg protein). […] All experiments are representative of 3 independent experiments.
To investigate the role of endogenous cathelicidin induction in the amelioration of acute colitis, mCRAMP deficient (Camp^−/−) and wild-type mice were administered with DSS and/or sodium butyrate as illustrated in FIG. 15A. DSS colitis led to significant tissue damages (FIG. 15C) with body weight loss (FIG. 15B) and increased histology score (FIG. 15C).

[5] = tested on: human colonic epithelial NCM460 cells; assay: Cathelicidin protein level in conditioned media of NCM460 cells; type: cell-based; settings: 5 mM; 16 hours; serum starved
Text: as §2

[6] = tested on: TNFα expression in fresh human colonic biopsies; assay: LPS induced TNFα protein expression in fresh human colonic biopsies; type: cell-based; settings: LL-37 10 μM; LPS 0.1 μg/ml; 16 hours
Procedure: Human intestinal biopsies were obtained from normal patients, UC patients and CD patients after informed consent in accordance with procedures established by the Cedars-Sinai Institutional Review Board, IRBs 3358 and 23705 and UCLA Institutional Review Board IRB 11-001527. Baseline characteristics were outlined in FIG. 12B. Some fresh biopsies were frozen until homogenization. Some fresh colonic biopsies were cut into ˜3×3 mm pieces and incubated in serum free DMEM with 1% penicillin/streptomycin (Invitrogen) and exposed to LPS and/or LL-37.

[7] = tested on: human primary colonic fibroblasts; assay: TGF-β1 and IGF-1 induced COL1A2 mRNA expression in human primary colonic fibroblasts; type: cell-based; settings: LL-37 5-10 μM; 24 hours; p=0.0108 and p=0.0049; concentration dependent
Procedure: Camp mRNA in Camp^−/− mice was undetectable. […] Collagen (COL1A2) and total ERK protein expression was detected by Western blot analyses and quantitative image densitometry. […] TGF-β1 and IGF-1 induced COL1A2 mRNA expression in colonic fibroblasts (P=0.049) was inhibited by LL-37 (5-10 μM, p=0.001) in concentration dependent manner. […] TGF-β1 and IGF-1 induced COL1A2 mRNA expression in colonic fibroblasts (P=0.0233) was inhibited by LL-37 (5-10 μM, p=0.0108 and p=0.0049) in concentration dependent manner. All experiments are representative of 3 independent experiments.

[8] = tested on: Akt and ERK phosphorylation in CCD-18Co fibroblasts; assay: Akt and ERK phosphorylation in CCD-18Co fibroblasts (Western blot); settings: 30 minutes, concentration dependent
[9] = tested on: TNFα expression in human PBMCs; assay: PAMP induced TNFα protein expression in human PBMCs; type: cell-based; settings: 16 hours
Procedure: as §1

NCM460 colonocytes = assay: Apoptosis (cleaved PARP) in NCM460 colonocytes; type: cell-based, human; settings: LL-37 10 μM; proinflammatory cytokine cocktail or TNFα 10 ng/ml; 24 hours
Procedure: NCM460 cells were treated with proinflammatory cytokines cocktail or TNFα (10 ng/ml) with or without LL-37 (10 μM) for 24 hours. Apoptosis signaling molecule cleaved PARP was determined by Western blot and quantification. […] All experiments are representative of 3 independent experiments.

CCD-18Co = assay: Cell migration of CCD-18Co in modified Boyden chamber; type: cell-based, human; settings: LL-37 0-10 μM; 37° C. for 8 hours
Procedure: Fibroblasts accumulated in the mucosal and submucosal locations as collagen deposition. […] Three different locations (3 separate images) per sample were counted. […] Cell migration was not affected by LL-37 (0-10 μM). Results are representative of 3 independent experiments.

[10] = inhibitor 10 μM pretreatment 30 minutes, 72 hours, p=0.0005

## N#CC(=C(/N)Sc1ccccc1N)/C(C#N)=C(\N)Sc1ccccc1N [U0126]
[1]
  LPS induced TNFα expression: inhibited; also recorded: suppressed LPS induced TNFα expression

## pertussis toxin
[1]; pertussis toxin 500 ng/ml pretreatment overnight, mCRAMP 1-10 μM, 16 hours
  effect on the inhibitory effect of cathelicidin against LPS induced TNFα expression: reversed; also recorded: revered

## C=C1[C@@H](C)[C@H]2[C@H](Cc3ccccc3)NC(=O)[C@]23OC(=O)/C=C/[C@H](O)CCC[C@@H](C)C/C=C/[C@H]3[C@@H]1O [cytochalasin B]
CCD-18Co fibroblasts
  tubulin distribution (tubulin tracker): shrunk tubulin network in cells
CCD-18Co fibroblasts; [10]
  TGF-β1 and IGF-1 induced β-tubulin expression: affected
[2]; [10]
  TGF-β1 and IGF-1 induced COL1A2 expression: affected

## CN([C@@H](Cc1ccc(OS(=O)(=O)c2cccc3cnccc23)cc1)C(=O)N1CCN(c2ccccc2)CC1)S(=O)(=O)c1cccc2cnccc12 [KN62]
[1]; antagonist 10 μM pretreatment 30 minutes, mCRAMP 10 μM, 16 hours
  effect on the anti-inflammatory effect of cathelicidin against LPS: did not alter the anti-inflammatory effect of cathelicidin

## COc1cccc(-c2cc(=O)c3ccccc3o2)c1N [PD98059]
CCD-18Co fibroblasts; inhibitor 10 μM pretreatment 30 minutes, LL-37 10 μM, 72 hours
  involvement in the LL-37 mediated inhibition of β-tubulin expression: not involved

## mouse IGF-1: mouse insulin like growth factor-1
[1]; mouse IGF-1 80 pg/ml pretreatment 30 minutes, mCRAMP 10 μM, 16 hours
  effect on the mCRAMP mediated inhibition of LPS induced TNFα secretion: reversed the mCRAMP mediated inhibition

## CCCC(=O)[O-].[Na+] [sodium butyrate]
UC disease activity
  clinical UC disease activity: reduce clinical UC disease activity
Raw264.7 macrophages
  Camp mRNA expression: significantly increased Camp mRNA expression
DSS mediated colitis [3]
  DSS mediated colitis: reduce
DSS mediated colitis [4]; Camp−/− mice
  decrease of colonic TNFα levels: 21 % reduction
  drop of colonic TNFα levels: 4 pg/μg protein
DSS mediated colitis [4]; DSS exposed mice
  colonic microflora load (16S expression, PCR): did not cause significant change; also recorded: did not alter colonic 16S expression
DSS mediated colitis [4]; DSS treated mice
  colonic Camp mRNA expression: significantly induced; also recorded: further augmented
DSS mediated colitis [4]; DSS treated wild-type mice
  colonic mCRAMP protein expression (Western blot): significantly induced; also recorded: increased colonic mCRAMP protein expression
DSS mediated colitis [4]; both wild-type and Camp−/− mice, p=0.04
  colonic TNFα levels: significantly reduced colonic TNFα levels
DSS mediated colitis [4]; wild-type mice
  decrease of colonic TNFα levels: 40 % reduction
  drop of colonic TNFα levels: 6 pg/μg protein
DSS mediated colitis [4]; wild-type mice, intraperitoneal
  histology score: significant decrease of histology score
[5]
  cathelicidin protein level in conditioned media: significantly increased

## LL-37 (LLGDFFRKSKEKIGKEFKRIVQRIKDFLRNLVPRTES)
[6]
  LPS induced TNFα protein expression in conditioned media: almost abolished
CCD-18Co fibroblasts
  tubulin distribution (tubulin tracker): shrunk the tubulin network
CCD-18Co fibroblasts; LL-37 10 μM, 72 hours
  β-tubulin expression: inhibition
[7]
  TGF-β1 and IGF-1 induced COL1A2 mRNA expression: inhibited
[8]; LL-37 up to 10 μM
  ERK phosphorylation: significantly induced
[8]
  Akt phosphorylation: significantly induced
[9]; LL-37 10 μM, LPS 0.1 μg/ml
  LPS induced TNFα protein expression in conditioned media: significantly reduced
[9]; LL-37 1-10 μM, E. coli DNA 0.5 μg/ml
  E. coli DNA induced TNFα expression: no inhibitory effect
NCM460 colonocytes
  apoptosis (cleaved PARP, Western blot): failed to reverse PARP cleavage; also recorded: did not affect apoptosis
[2]; 10 μM LL-37, TGF-β1 50 ng/ml and IGF-1 10 ng/ml, 48 hours, p=0.0001
  TGF-β1 and IGF-1 induced COL1A2 expression (Western blot, densitometry): significantly reduces; also recorded: reduced
[2]; LL-37 5-10 μM, 24 hours, p=0.001, concentration dependent
  TGF-β1 and IGF-1 induced COL1A2 mRNA expression: significantly reduces; also recorded: inhibited
CCD-18Co
  cell migration: not affected

## N#C/C(=C\c1ccc2oc(=O)[nH]c2c1)C(=O)c1ccc(O)c(O)c1 [AGL2263]
[1]; 16 hours
  LPS induced TNFα expression under IGF-1R inhibition: not affected

## N#C/C(=C\c1ccc(O)c(O)c1)C(=O)c1ccc(O)c(O)c1 [AG538]
[1]; 16 hours
  LPS induced TNFα expression under IGF-1R inhibition: not affected
